How the values were obtained:
[1] = tested on: HIV-1 RT mutant G190A; assay: single round infection assay, G190A; type: cell-based; details: for fold-change of IC50 of the mutant relative to WT: G190A vs WT; for IC50: Human immunodeficiency virus 1
[2] = tested on: HIV-1 RT mutant E138K/M184V; assay: single round infection assay, E138K/M184V; type: cell-based; details: for fold-change of IC50 of the mutant relative to WT: E138K/M184V vs WT; for IC50: ± SD, n=4
Method: (§1) The human osteosarcoma cell line, HOS, was obtained from Dr. Richard Schwartz (Michigan State University, East Lansing, MI) and grown in Dulbecco’s modified Eagle’s medium (Invitrogen, Carlsbad, CA) supplemented with 5 % (v/v) fetal bovine serum, 5 % newborn calf serum, and penicillin (50 units/ml) plus streptomycin (50 µg/ml; Quality Biological, Gaithersburg, MD). Virion production and single-round infectivity assays were used to determine antiviral activity (IC50 values) of the compounds as previously described.
(§2) pNLNgoMIVR-ΔEnv.LUC has been described previously. The RT open reading frame was removed from pNLNgoMIVR-ΔEnv.LUC (digestion with SpeI and SalI) and inserted between the SpeI and SalI sites of pBluescript II KS+. Using that construct as the wild-type template, we prepared the following HIV-1 RT mutants using the QuikChange II XL (Stratagene, La Jolla, CA) site-directed mutagenesis protocol kit: L100I, K103N, Y181C, Y188L, H221Y, K103N/Y181C, G190A, G190S, M230L, P236L, L100I/K103N, K103N/P225H, V106A/G190A/F227L, V106A, L234I, V106A/F227L, V106A/L234I, V106A/F227L/L234I, E40K, D67E, K101E, V111A, E138K, M184I, M184V, K101E/M184I, K101E/M184V, E138K/M184I, E138K/M184V, K101P, Y181I, and K101P/V179I. The following sense oligonucleotides were used with matching cognate antisense oligonucleotides (not shown) (Integrated DNA Technologies, Coralville, IA) in the mutagenesis: L100I, 5′-[…]-3′; L100I 2-103, 5′-[…]-3′; K103N, 5′-[…]-3′; Y181C, 5′-[…]-3′; Y188L, 5′-[…]-3′; H221Y, 5′-[…]-3′; G190A, 5′-[…]-3′; G190S, 5′-[…]-3′; P225H, 5′-[…]-3′; F227, 5′-[…]-3′; M230L, 5′-[…]-3′; P236L, 5′-[…]-3′; V106A, 5′-[…]-3′; L234I, 5′-[…]-3′; E40K, 5′-[…]-3′; D67E, 5′-[…]-3′; K101E, 5′-[…]-3′; V111A, 5′-[…]-3′; E138K, 5′-[…]-3′; M184I, 5′-[…]-3′; M184V, 5′-[…]-3′; K101P, 5′-[…]-3′; Y181I, 5′-[…]-3′; K101P/V179I, 5′-[…]-3′. The double mutants K103N/Y181C, K103N/P225H, and L100I/K103N were made using the previously generated K103N mutant and the appropriate oligonucleotides to add the second mutation, Y181C, P225, and L100I respectively. The double mutants V106A/F227L and V106A/L234I were prepared using the previously generated V106A mutant and the appropriate oligonucleotides to add the second mutation, F227L and L234I, respectively. The double mutants K101E/M184I and K101E/M184V were constructed using the previously generated K101E mutant and the appropriate oligonucleotides to add the second mutation, M184I and M184V, respectively. The double mutants E138K/M184I and E138K/M184V were constructed using the previously generated E138K mutant and the appropriate oligonucleotides for the second mutation, M184I and M184V, respectively. The triple mutant V106A/F227L/L234I was made using the previously generated V106A/F227L double mutant and the appropriate oligonucleotides for the third mutation, L234I. The triple mutant V106A/G190A/F227L was constructed in a series of steps using the previously generated V106A mutant and the appropriate oligonucleotides for the second mutation, G190A, to generate the double mutant V106A/G190A, and then the triple mutant was made using double mutant V106A/G190A and oligonucleotides for the third mutation, F227L. The DNA sequence of each construct was verified by DNA sequence determination. The sequences encoding the mutant RTs were then subcloned into pNLNgoMIVR-ΔEnv.LUC (between the KpnI and SalI sites) to produce the mutant HIV-1 constructs. These DNA sequences were also checked independently by DNA sequence determination.
(§3) 10.1186/s12977-016-0244-2 The IC50 values (nM) of RPV and the RPV analogs were determined against the NNRTI resistant mutants were measured by using a single round infection assay, n = 4. The concentrations (nM) are measured by reductions in luciferase reporter activity followed by the standard deviations. […]

[3] = tested on: HIV-1 RT mutant Y181C; parameters: method as in PMID 23217210; details: previous study; cited from earlier work
[4] = tested on: HIV-1 RT mutant L100I; parameters: method as in PMID 23217210; details: previous study; cited from earlier work
[5] = tested on: HIV-1 RT mutant K101E/M184I; assay: single round infection assay, K101E/M184I; type: cell-based; details: for fold-change of IC50 of the mutant relative to WT: K101E/M184I vs WT
Method: as §1, §2, §3

[6] = tested on: HIV-1 RT mutant L100I/K103N; assay: single round infection assay, L100I/K103N; type: cell-based; details: for fold-change of IC50 of the mutant relative to WT: L100I/K103N vs WT; for IC50: Human immunodeficiency virus 1, L100I/K103N, ± SD, n=4, limit of detection 100 nM
Method: as §1, §2, §3

[7] = tested on: HIV-1 RT mutant K101P; assay: single round infection assay, K101P; type: cell-based; details: for IC50: Human immunodeficiency virus 1
[8] = tested on: HIV-1 RT mutant V106A/G190A/F227L; assay: single round infection assay, V106A/G190A/F227L; type: cell-based; details: for IC50: Human immunodeficiency virus 1; for fold-change of IC50 of the mutant relative to WT: V106A/G190A/F227L vs WT
[9] = tested on: HIV-1 RT mutant E138K; assay: single round infection assay, E138K; type: cell-based; details: for fold-change of IC50 of the mutant relative to WT: E138K vs WT; for IC50: ± SD, n=4
[10] = tested on: HIV-1 RT mutant P236L; assay: single round infection assay, P236L; type: cell-based; details: for IC50: Human immunodeficiency virus 1; for fold-change of IC50 of the mutant relative to WT: P236L vs WT
[11] = tested on: HIV-1 RT mutant V106A/F227L; assay: single round infection assay, V106A/F227L; type: cell-based; details: for fold-change of IC50 of the mutant relative to WT: V106A/F227L vs WT; for IC50: ± SD, n=4
[12] = tested on: HIV-1 RT mutant D67E; assay: single round infection assay, D67E; type: cell-based; details: for fold-change of IC50 of the mutant relative to WT: D67E vs WT; for IC50: ± SD, n=4
[13] = tested on: HIV-1 RT mutant Y181I; assay: single round infection assay, Y181I; type: cell-based; details: for IC50: Human immunodeficiency virus 1; for fold-change of IC50 of the mutant relative to WT: Y181I vs WT
[14] = Human immunodeficiency virus 1, D67E
[15] = Human immunodeficiency virus 1, E138K
[16] = Human immunodeficiency virus 1, E138K/M184V

Row | Compound | IC50 [1] | fold-change of IC50 of the mutant relative to WT [2] | IC50 [3] | IC50 [4] | fold-change of IC50 of the mutant relative to WT [5] | fold-change of IC50 of the mutant relative to WT [6] | IC50 [7] | IC50 [8] | fold-change of IC50 of the mutant relative to WT [8] | fold-change of IC50 of the mutant relative to WT [9] | IC50 [10] | fold-change of IC50 of the mutant relative to WT [11] | fold-change of IC50 of the mutant relative to WT [12] | IC50 ([12]; D67E) | IC50 [12, 14] | IC50 [13] | fold-change of IC50 of the mutant relative to WT [13] | IC50 [6] | IC50 ([9]; E138K) | IC50 [9, 15] | also measured
1 | Cc1cc(/C=C/C#N)cc(C)c1Nc1nc(Nc2ccc(C#N)cc2)c2nc[nH]c2n1 [compound 13] | 0.3 ± 0.04 nM | 4 | < 7 nM | < 7 nM | < 2 | 2 | 18.1 nM | 0.5 ± 0.2 nM | < 2 | 5 | 0.31 ± 0.02 nM | < 2 | 6 | 1.6 ± 0.4 nM | < 2.5 nM | 1.2 nM | 5 |  |  |  | fold-change of IC50 of the mutant relative to WT [1]: < 2; fold-change of IC50 of the mutant relative to WT ([7]; K101P vs WT): 70; fold-change of IC50 of the mutant relative to WT [10]: < 2
2 | CC(=O)c1ccc(Nc2nc(Nc3c(C)cc(/C=C/C#N)cc3C)nc3[nH]cnc23)cc1 [compound 14] | 0.13 ± 0.04 nM | 2 | < 7 nM | < 7 nM | < 2 | 31 | > 100 nM | 0.9 ± 0.18 nM | 2 | 6 | 0.15 ± 0.05 nM | 12 | 4 | 1.7 ± 0.21 nM | < 2.5 nM | > 100 nM |  | 12.6 nM | 2.6 ± 0.6 nM | < 2.5 nM | IC50 ([11]; Human immunodeficiency virus 1, V106A/F227L (selected by DOR)): < 5 nM; IC50 ([11]; V106A/F227L (selected by DOR)): 4.9 ± 1.3 nM
3 | COc1ccc(Nc2nc(Nc3c(C)cc(/C=C/C#N)cc3C)nc3[nH]cnc23)cc1 [compound 16] | 0.37 ± 0.08 nM | 10 | < 7 nM | < 7 nM | < 2 | 11 | > 100 nM | 1.7 ± 0.2 nM | 10 | 11 | 0.2 nM | 4 | 16 | 2.7 ± 0.8 nM | < 2.5 nM | 63.2 nM | 372 |  | 1.9 ± 0.01 nM | < 2.5 nM | fold-change of IC50 of the mutant relative to WT [1]: 2; IC50 ([2]; E138K/M184V): 1.7 ± 0.35 nM; IC50 [2, 16]: < 2.5 nM; fold-change of IC50 of the mutant relative to WT [10]: < 2
4 | Cc1cc(/C=C/C#N)cc(C)c1Nc1nc(Nc2ccc(F)cc2)c2nc[nH]c2n1 [compound 17] | 1.6 ± 0.3 nM | < 2 | < 7 nM | < 7 nM | 7 | 29 | 100 nM | 10.8 ± 2.5 nM | 5 | 6 | 1.2 nM | 19 | 12 |  | 26 nM | 78.9 nM | 36 | 63.4 nM |  | 13.5 nM | IC50 [2, 16]: 2.3 ± 0.02 nM; IC50 ([5]; Human immunodeficiency virus 1, K101E/M184I, ± SD, n=4): 15 nM
5 | Cc1cc(/C=C/C#N)cc(C)c1Nc1nc(Nc2ccc3scnc3c2)c2nc[nH]c2n1 [compound 21] | 0.3 ± 0.12 nM | 6 | < 7 nM | < 7 nM | 2 | 92 | > 100 nM | 3.8 ± 1.6 nM | 9 | 6 | 0.32 ± 0.09 nM | 27 | 9 |  | 3.6 ± 0.6 nM | > 100 nM |  | 37.6 nM | 2.4 ± 0.4 nM | < 2.5 nM | IC50 ([2]; E138K/M184V): 2.3 ± 0.7 nM; IC50 [2, 16]: < 2.5 nM

Reference: PMC4754833, “Rilpivirine analogs potently inhibit drug-resistant HIV-1 mutants” (Retrovirology, 2016)
